Measurements from patent US20060178389A1, “Use of siramesine in the treatment of cancer” (priority 2003, published 2006).

Key:
[1] = test system: cultured tumor cell lines originating from tumors of the prostate, breast and cervix; experiment: Induction of programmed cell death in cultured tumor cell lines (MTT / LDH release); type: cell-based, human; settings: dose dependent, tumor cell lines of various origins incl. prostate
Source text: (§1) Murine fibrosarcoma cells WEHI-S, Wn902, Wn912, and WEHI-R4 are normal, vector control, Hsp70 overexpressing, and hTNF resistant cells, respectively. Other cell types tested include: Human breast cancer cell types MCF7-S1 and MDA-MB-468, and non-tumorigekic immortalized breast epithelial cells HBL100. MCF7 casp3.1 and −3.3 and neo2 are single cell clones expressing caspase3 and vector. MCF7 pCEP, -Bcl2 WT, -Bcl2 NT, -Bcl2 Acta, and -Bcl2 Cb5 are single cell clones expressing vector, wildtype Bcl2, cytoplasma localized Bcl2, mitochondria localized Bcl2, and ER localized Bcl2 (Maria Høyer Hansen, Apoptosis Laboratory, Danish Cancer Society). Human neuroblastoma cell line SK-N-MC cells (ATCC, USA). […]
(§2) Cell viability was measured using the MTT reduction assay. Conversion of the tetrazolium salt 3-(4,5-dimethylthiazole-2-yl)-2,5-diphenyltetrasodiumbromide (MTT, SIGMA-Aldrich) into the blue-colored formazan product was assessed spectrophotometrically by absorption at 570 nm using a Versamax microplate reader (Molecular Devices). The survival rate was determined as the percentage of untreated cells or inhibitor-treated cells: Cells were seeded into 96-well plate, containing 200 μL media, and treated the following day with drugs. The effect on cell viability was assessed 24-60 h after drug addition by removal of 100 μL media and addition of 25 μL MTT solution (1 mg/mL in PBS, sterile filtered). […]

[2] = test system: N1H3T3 murine fibroblasts transduced with v-Ha-ras or c-src; experiment: Sensitivity of fibroblasts towards Siramesine after oncogenic transformation; type: cell-based; settings: upon oncogenic transformation by ras or src
Source text: as §1, §2

WEHI-S cells [3] = experiment: Induction of apoptosis compared with reference sigma ligands, WEHI-S; type: cell-based, murine; settings: versus Haloperidol and pentazocine
Source text: as §1, §2

MCF7 cells = experiment: Induction of apoptosis compared with reference sigma ligands, MCF7; type: cell-based, human; settings: versus Haloperidol and pentazocine
Source text: as §1, §2

effector caspase = experiment: Mode of cell death: nuclear morphology, caspase inhibitors, caspase 3/7-like activity; type: cell-based
Source text: (§3) The following protease inhibitors were used: zVAD-fmk, DEVD-fmk (Bachem Bubendorf, Switzerland), DEVD-CHO (Neosystems, Strasbourg, France), LEHD-CHO, zFA-fmk (Enzyme System Products, Livermore, Calif.), CA-074-Me (Peptides International, Louisville, Ky.), APC1138 (Celera Applied Biosystems, Foster City, Calif., USA),. Pepstatin A, PD150606, and calpain inhibitor I (CI) (Calbiochem, La Jolla, Calif.), TPCK (Boehringer Mannheim), pefabloc (AEBSF) (Roche Diagnostics, DK).
The cell death mode was assessed by the type of nuclear condensation and performed by hoechst staining (cell permeable Hoechst 33342, SIGMA-Aldrich) of drug-treated cells. Non cell permeable Sytox Green (Molecular Probes) was used to assay loss of membrane integrity and compared with nuclear morphological changes observed with Hoechst. Cells were incubated with 10.000× dilution of 25 mg/mL hoechst and /or 10.000× dilution of 5 mM sytox green for 5 min at 37° C. where after type of nuclear condensation and possible co-stain was analyzed using an inverted Olympus microscope IX-70.
(§4) To measure cytosolic cystein cathepsin enzyme activity, subconfluent cells seeded in 24-well plates were treated with an extraction buffer (250 mM sucrose, 20 mM HEPES, 10 mM KCl, 1.5 mM MgCl2, 1 mM EDTA, 1 mM EGTA, 1 mM pefablock; pH 7.5) containing 20 μg/mL digitonin for 12-15 min on ice. […]

lysosomal cathepsins = experiment: Release of lysosomal cathepsins (immunostaining of cathepsin B and L, purified lysosomes, cathepsin inhibitors); type: cell-based
Source text: as §3
as §4, with “ice. To measure total cellular cystein cathepsin enzyme activity, cells were treated with the above extraction buffer containing 200 μg/mL digitonin for 12-15 min on ice.” for “ice.”
Cells were exposed to the lysomotropic weak base and metachromatic fluorochrome acridine orange (AO, Molecular Probes) that accumulates in acidic compartments. […] Cells were either evaluated using an inverted Olympus microscope IX-70 or detached from the substratum and analyzed by flow cytometry using a FACSort (Becton Dickinson, San Jose, Calif.) with an argon ion laser with an output wavelength of 488 nm and analyzed using CELLQuest software. […]

[4] = test system: Tumor cells protected by ectopic expression of Bcl-2; experiment: Killing of tumor cells with ectopic expression of Bcl-2; type: cell-based; settings: cells protected against most other anti-cancer drugs by ectopic expression of Bcl-2
Source text: as §1, §2

p53 = p53 activation; type: cell-based
WEHI-R4 cells = test system: WEHI-R4 cells
Experimental: WEHI-R4 cells (5×10^6) were implanted subcutaneously in the back of immunocompetent female BALB/c mice. Siramesine treatment commenced two days prior to tumor implant. Mice were divided into groups (5-9/group) and administered peroral 200 μL 1) vehicle (0.5% methylcellulose 15 in 0.9% NaCl solution), 2) 100 mg/kg/day Siramesine in suspension (in 0.5% methylcellulose 15 in 0.9% NaCl solution) 7 days per week. For combinational in vivo studies, 50 mg/kg siramesine was administered 7 days/week in combination with a single dose of etoposide (i.p.) up to 30 mg/kg (administered on day one). Tumor volumes were estimated by the use of a caliper. The effect of the drugs on the tumor growth was monitored over 14-21 days before the mice were sacrificed.

WEHI-S cells [5] = experiment: Induction of cell death in combination with chemotherapeutics; type: cell-based, murine; settings: together with etoposide, doxorubicin, staurosporin, vincristine and tamoxifen
Source text: as §1, §2

## Fc1ccc(-n2cc(CCCCN3CCC4(CC3)OCc3ccccc34)c3ccccc32)cc1 [Siramesine, 1′-[4-[1-(4-fluorophenyl)-1H-indole-3-yl]-1-butyl]-spiro[isobenzofuran-1(3H)4′-piperidine]]
[1]
  induction of programmed cell death: effectively induces programmed cell death
[2]
  sensitivity of cells towards Siramesine: increased
WEHI-S cells [3]
  potency as inducer of apoptosis versus reference sigma ligands: significantly more potent inducer of apoptosis than Haloperidol and pentazocine
MCF7 cells
  potency as inducer of apoptosis versus reference sigma ligands: significantly more potent inducer of apoptosis than Haloperidol and pentazocine
Effector caspase
  effector caspase activation: absence of effector caspase activation
Effector caspase; based on nuclear morphological changes and absence of protection by pharmacological caspase inhibitors
  mode of death: caspase-independent
Lysosomal cathepsins
  effect of pharmacological cathepsin inhibitors on siramesine-induced death: can attenuate the death
Lysosomal cathepsins; immunohistochemical staining of cathepsin B and L, in vitro release from purified lysosomes
  release of lysosomal cathepsins into the cytosol: release of lysosomal cathepsins into the cytosol seems to be involved in the execution of the death process
[4]
  killing of Bcl-2 expressing tumor cells: effectively killed
p53
  activation of p53: does not activate p53
WEHI-R4 cells; BALB/c mice, siramesine alone, peroral
  effect on tumor growth: anti-tumorigenic effect
WEHI-R4 cells; BALB/c mice, siramesine and etoposide versus groups single-treated
  effect on tumor growth, combination with etoposide: combinational effect
WEHI-R4 cells; mouse, in vivo
  tolerability in vivo: well tolerated
WEHI-S cells [5]
  interaction with chemotherapeutics in induction of cell death: synergistic
